From US9505768B2, “Compositions and methods for modulating TLR4” (The Regents of the University of California, priority 2012, dated 2016)
Entries after “also recorded” stand apart in the source; their conditions may differ. Like-named read-outs stand apart in the source and are kept apart here.

Legend:
mBMDC = test: MTT viability assay in mBMDC; details: 18 h, concentrations up to 10 μM
Protocol: Cytotoxicity of the compounds was evaluated by MTT assay as a measure of viability. mBMDC (10^5/well) were incubated with graded concentrations of the compounds for 18 h and compared with vehicle (0.5% DMSO) and MPLA (1 μg/mL). […] (FIG. 6B) The cells were lysed after the overnight incubation with MTT reagents, and absorbance at 570 nm was measured, subtracting the reference absorbance at 650 nm. Data shown are mean±SEM of triplicates and are representative of two independent experiments showing similar results.

mouse TLR4 = target: T1, mouse TLR4 (Mus musculus, UniProt Q9JHF9+Q9QUK6); test: Murine TLR4 HEK Blue NFκB/SEAP reporter assay; type: cell-based; details: for mouse TLR4, area under curve (AUC) values normalized to Cmpd 1: mTLR4 HEK transfectoma, 312 nM to 10 μM, Cmpd 1 set at 100
T1 construct: host or cells: HEK293 (HEK Blue) cells with NFκB/SEAP reporter
T1 sequence (Q9QUK6 26-835): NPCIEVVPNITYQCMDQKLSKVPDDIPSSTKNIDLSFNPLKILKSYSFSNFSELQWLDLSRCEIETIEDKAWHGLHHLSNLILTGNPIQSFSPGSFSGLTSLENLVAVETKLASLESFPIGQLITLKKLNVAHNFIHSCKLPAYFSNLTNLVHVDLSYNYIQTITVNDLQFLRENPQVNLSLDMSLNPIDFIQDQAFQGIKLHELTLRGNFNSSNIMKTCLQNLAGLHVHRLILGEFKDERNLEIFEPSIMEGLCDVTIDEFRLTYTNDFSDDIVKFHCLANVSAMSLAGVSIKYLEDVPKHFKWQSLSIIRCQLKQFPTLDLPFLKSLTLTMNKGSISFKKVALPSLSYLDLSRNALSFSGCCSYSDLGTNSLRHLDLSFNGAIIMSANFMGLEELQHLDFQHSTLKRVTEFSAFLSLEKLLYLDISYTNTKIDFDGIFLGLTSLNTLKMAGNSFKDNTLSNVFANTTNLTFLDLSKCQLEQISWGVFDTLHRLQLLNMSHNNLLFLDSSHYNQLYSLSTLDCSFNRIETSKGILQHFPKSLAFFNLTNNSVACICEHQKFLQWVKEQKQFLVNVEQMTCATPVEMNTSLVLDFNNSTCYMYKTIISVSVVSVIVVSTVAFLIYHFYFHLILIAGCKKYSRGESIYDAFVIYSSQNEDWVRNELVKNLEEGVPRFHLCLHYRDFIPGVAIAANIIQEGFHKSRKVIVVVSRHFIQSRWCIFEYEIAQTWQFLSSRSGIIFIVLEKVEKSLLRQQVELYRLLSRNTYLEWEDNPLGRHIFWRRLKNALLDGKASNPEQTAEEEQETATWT
T1 sequence (Q9JHF9 19-160): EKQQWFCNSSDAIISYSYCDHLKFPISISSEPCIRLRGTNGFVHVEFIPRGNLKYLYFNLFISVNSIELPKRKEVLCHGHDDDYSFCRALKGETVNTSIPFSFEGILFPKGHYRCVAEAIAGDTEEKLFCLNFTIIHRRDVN
Protocol: (§1) The above assays were utilized to compare the derivatives of the lead pyrimidoindole for their ability to activate mouse and human TLR4. […] Each cytokine induction curve was first converted to a percent activity curve, and then the AUC of the percent activity curve was calculated. The process of converting to a percent activity curve allowed subtracting background and adjusting for plate-to-plate variation.
(§2) The culture supernatants were harvested after a 20-24 h incubation period. SEAP activity in the supernatants was determined by a colorimetric assay, using either the SEAPorter Assay Kit (Imgenex), with absorbance read at 405 nm, or QuantiBlue (Invivogen), with absorbance read at 630 nm.

human TLR4 = target: T2, human TLR4 (Homo sapiens, UniProt O00206+Q9Y6Y9); test: Human TLR4 HEK Blue NFκB/SEAP reporter assay; type: cell-based; details: for human TLR4, values normalized to Cmpd 1: hTLR4 HEK293 transfectoma, all compounds tested at 10 μM, Cmpd 1 set at 100
T2 construct: host or cells: HEK293 (HEK Blue) cells with NFκB/SEAP reporter
T2 sequence (O00206 24-839): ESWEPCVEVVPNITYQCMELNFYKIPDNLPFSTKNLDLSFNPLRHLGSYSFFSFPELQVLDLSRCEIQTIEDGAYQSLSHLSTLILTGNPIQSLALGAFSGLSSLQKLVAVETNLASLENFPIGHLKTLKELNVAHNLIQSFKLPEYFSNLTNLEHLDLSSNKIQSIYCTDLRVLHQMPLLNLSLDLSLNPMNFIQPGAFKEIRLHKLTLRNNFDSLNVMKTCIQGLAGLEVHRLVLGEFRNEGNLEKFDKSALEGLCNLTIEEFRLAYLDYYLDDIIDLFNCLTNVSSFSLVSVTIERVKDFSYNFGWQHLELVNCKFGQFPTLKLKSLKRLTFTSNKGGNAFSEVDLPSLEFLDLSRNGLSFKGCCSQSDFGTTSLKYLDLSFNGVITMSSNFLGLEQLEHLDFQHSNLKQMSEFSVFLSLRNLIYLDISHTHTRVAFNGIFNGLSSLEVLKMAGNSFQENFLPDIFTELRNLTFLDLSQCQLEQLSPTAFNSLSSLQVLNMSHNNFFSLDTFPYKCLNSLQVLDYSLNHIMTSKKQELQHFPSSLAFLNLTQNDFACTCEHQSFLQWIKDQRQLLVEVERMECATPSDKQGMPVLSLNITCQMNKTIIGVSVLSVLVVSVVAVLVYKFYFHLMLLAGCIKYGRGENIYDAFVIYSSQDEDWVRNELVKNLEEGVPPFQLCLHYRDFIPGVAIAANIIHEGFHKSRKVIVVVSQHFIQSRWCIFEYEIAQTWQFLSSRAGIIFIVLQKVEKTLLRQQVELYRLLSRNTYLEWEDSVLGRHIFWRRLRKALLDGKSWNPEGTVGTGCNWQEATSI
T2 sequence (Q9Y6Y9 19-160): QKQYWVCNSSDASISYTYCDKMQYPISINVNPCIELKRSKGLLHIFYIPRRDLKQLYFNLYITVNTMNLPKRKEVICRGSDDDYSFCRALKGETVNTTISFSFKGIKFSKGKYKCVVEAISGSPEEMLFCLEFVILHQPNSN
Protocol: as §1, §2

[1] = tested on: human peripheral blood mononuclear cells (hPBMC); test: IL-8 release from human PBMC (ELISA); type: cell-based; details: compound 1 10 μM
Protocol: Human PBMC were isolated from buffy coats obtained from the San Diego Blood Bank (San Diego, Calif.) as described previously. […] The levels of IL-8 in the supernatants were determined by ELISA (BD Biosciences, La Jolla, Calif.). Human cell cultures were treated with 10 ng/mL LPS as the positive control.

[2] = tested on: mouse bone marrow derived dendritic cells (mBMDC); test: IL-6 induction in mouse bone marrow derived dendritic cells (ELISA); type: cell-based; details: relative to Cmpd 1 / within series
Protocol: as §1
(§3) BMDC were prepared from C57BL/6 mice as described. See e.g., Wu, C. […] BMDC (10^5 cells per well) were plated in 96-well plates in 200 μL of complete RPMI1640 supplemented with 10% fetal calf serum (FCS; Sigma Aldrich), 100 U/mL penicillin, and 100 μg/mL streptomycin (Invitrogen). […] After 18 h incubation, the cell culture supernatants were collected. LPS (purified LPS, Invivogen, San Diego, Calif.) or MPLA (1 μg/mL synthetic MPLA, Invivogen, San Diego, Calif.) were used as positive controls. […] The AUC was calculated from BMDC dose-response curves using Prism 5 (GraphPad, San Diego). Each cytokine induction curve was first converted to a percent activity curve, and then the AUC of the percent activity curve was calculated. The process of converting to a percent activity curve allowed subtracting background and adjusting for plate-to-plate variation.

[3] = tested on: TLR2, TLR3, TLR4/MD-2/CD14, TLR5, TLR7, TLR8, or TLR9 expressing HEK293 cells; details: 10 μM, 20-24 h, SEAP
Text: To identify the target receptor, we used HEK293 cells stably transfected with individual human (h) TLRs: TLR2, TLR3, TLR4/MD-2/CD14, TLR5, TLR7, TLR8, or TLR9 expressing HEK293 cells, along with an NFκB activation reporter producing secreted embryonic alkaline phosphatase (SEAP).

[4] = tested on: mouse bone marrow derived dendritic cells (mBMDC); test: IP-10 induction in mBMDC (ELISA), surrogate marker of type I IFN; type: cell-based
[5] = tested on: mouse bone marrow derived dendritic cells (mBMDC); test: IL-6 induction in mouse bone marrow derived dendritic cells (ELISA); type: cell-based
[6] = tested on: mouse bone marrow derived dendritic cells (mBMDC)
Protocol: 0.5% DMSO in saline served as a vehicle controls. The levels type I IFN were determined using L929-ISRE luciferase reporter cell line using murine IFN beta standard (FIG. 7A). IP-10 levels were determined by ELISA (FIG. 7B). Data shown are mean±SEM of triplicates in representative of two independent experiments showing similar results. * denotes p<0.05 was considered as significant compared to vehicle using one way ANOVA with Dunnett's post hoc testing.
L929 cells stably expressing an interferon sensitive response element (ISRE) luciferase reporter construct were kindly provided by Dr. B. Beutler (UT Southwestern, Texas). […] The bioactivity of type I IFN in mBMDC supernatants was measured by luciferase assay using L929-ISRE cells as described previously. […] Thus, 50 μL of μBMDC supernatant was incubated with L929-ISRE cells in 50 μL of DMEM for 6 h. Mu-IFN Beta Standard (PBL Interferon Source, Piscataway, N.J.) was used as a standard. The luciferase activities were measured by Steady-Glo luciferase assay buffer (Promega, Madison, Wis.).

C57BL/6 mice [7] = details: in vivo
C57BL/6 mice [8] = test: Protection from LPS/galactosamine-induced lethal liver injury; type: in vivo, mouse
Protocol: FIGS. 11A-11B depict that administration of Cmpd 42 and Cmpd 33 protects hosts from LPS-induced lethal liver injury. FIG. 11A: Schematic showing that C57BL/6 mice were intraperitoneously injected with 500 nmol Cmpd. 42 (n=11) or Cmpd 33 (n=11). 40 μg MPLA (n=9) and vehicle (n=9) were used as positive and negative controls, respectively. Next day, mice were challenged with LPS (0.2 μg/animal) and galactosamine (12 mg/animal). FIG. 11B: Histogram showing results of sera collected 1.5 h post challenge and measured for TNFα. *:p<0.05 compared to vehicle treated mice.
Lipopolysaccharide (LPS), a TLR4 ligand, causes severe lethal liver injury when administered with galactosamine. Pretreatment of mice with MPLA is known to improve the survival in this model. To study whether Cmpd 42 and Cmpd 33 are able to act as immunomodulatory agents similar to MPLA, the mice were treated with Cmpd 42 or Cmpd 33 and challenged with LPS/galatosamine the next day, as depicted in FIG. 11A. Over 80% of Cmpd 42 and 100% of Cmpd 33-treated mice survived.

[9] = tested on: mouse bone marrow derived dendritic cells (mBMDC); test: IP-10 induction in mBMDC (ELISA), surrogate marker of type I IFN; type: cell-based; details: relative to Cmpd 1
Protocol: In addition to the production of inflammatory cytokines (IL-6, IL-12, TNFα, etc.) mediated by NFκB activation, TLR4 signaling can result in the production of type I interferons, a feature that is not only important for activation of dendritic cells leading to good adjuvant activity, but would also be important for rapid defense against a variety of pathogens, particularly viruses. […] To determine the relative ability of all compounds to induce the production of type 1 IFN, each was evaluated in mouse bone marrow derived dendritic cells as shown in Tables 1-3.
as §3
In addition, the levels of IP-10, a surrogate marker of type I IFN, in the supernatants were determined by ELISA (R&D Systems, Minneapolis, Minn.).

[10] = Oral bioavailability in mice (serum LC/MS); type: in vivo; details: mouse, C57BL/6 mice, 1 μmol oral vs 500 nmol i.v., AUC method
Protocol: FIG. 14 depicts time course showing that Cmpd 42 is orally bioavailable in mice. C57BL/6 mice were intravenously (500 nmol) or orally (1 μmol) administered with Cmpd 42. Sera were collected at the indicated time point and concentration of the compound were measured by LC/MS. Legend: oral administration, closed circle; i.v. administration, closed box. X-axis: time (min). Y-axis: concentration of Cmpd 42 (nM).
To test oral bioavailability, Cmpd 42 was orally or intravenously administered to C57BL/6 mice and the drug concentration in sera was measured. Results are depicted in FIG. 14.

[11] = WT vs Cd14-/- mBMDC, 3.7 μM overnight

In the case of `CCCn1c2ccccc2c2nc(SCC(=O)NC3CCCCC3)n(-c3ccccc3)c(=O)c21` [Compound 48, N-cyclohexyl-2-((4-oxo-3-phenyl-5-propyl-4,5-dihydro-3H-pyrimido[5,4-b]indol-2-yl)thio)acetamide], the “cell viability (MTT)” value (mBMDC) is reported as “did not reduce cell viability”.
With `O=C(CSc1nc2c([nH]c3ccccc32)c(=O)n1-c1ccccc1)NC1CCCCC1` [Compound 1, N-cyclohexyl-2-((4-oxo-3-phenyl-4,5-dihydro-3H-pyrimido[5,4-b]indol-2-yl)thio)acetamide] the “mouse TLR4 reporter cell activation (in words)” value (mouse TLR4) was “dose-dependent activation”, the “relative reporter activation, murine TLR4 cells” value (mouse TLR4; 5 μM Cmpd 1) was 1.52±0.03 and the “mouse TLR4, area under curve (AUC) values normalized to Cmpd 1” value (mouse TLR4) was 100. For the same compound, the “human TLR4 reporter cell activation (in words)” value (human TLR4) was “dose-dependent activation”, the “OD630 of human TLR4 reporter cells” value (human TLR4; 10 μM Cmpd 1) was 0.88 and the “human TLR4, values normalized to Cmpd 1” value (human TLR4) was 100. The “IL-8 released by hPBMC cultures (average, SD)” value [1] was 7.8 ± 0.8 ng/mL, the “IL-6 activity in mBMDC (in words)” value [2] was “the most active; also recorded: high IL-6” and the “TLR selectivity among TLR transfected HEK293 reporter cells” value [3] was “only those expressing TLR4/MD-2/CD14 responded”. The IP-10 production [4] was “dose-dependent response”, the “IP-10 production in mBMDC (in words)” value [4] was “high IP-10 production” and the “IP-10 released by mBMDC cultures (average)” value [4] was 590.0 ± 10.5 pg/mL. The “IL-6 released by mBMDC cultures (average, SD)” value ([5]; 5 μM Cmpd 1) was 10.5 ng/mL, the “IL-6 secretion in TLR4 deficient vs wild-type mBMDC” value ([5]; 10 μM, 18 h) was “completely abrogated” and the “CD14 dependence of IL-6 production” value [5, 11] was “not dependent on CD14; also recorded: retains IL-6 activity”. The “CD14 dependence of type I IFN production” value [6, 11] was “not dependent on CD14” and the “type I IFN production” value ([6]; graded doses, mBMDC overnight) was “dose-dependent response”.
With `Cn1c2ccccc2c2nc(SCC(=O)NC3CCCCC3)n(-c3ccccc3)c(=O)c21` [Compound 42, N-cyclohexyl-2-((5-methyl-4-oxo-3-phenyl-4,5-dihydro-3H-pyrimido[5,4-b]indol-2-yl)thio)acetamide] the “mouse TLR4, area under curve (AUC) values normalized to Cmpd 1” value (mouse TLR4) was 100, the “human TLR4, values normalized to Cmpd 1” value (human TLR4) was 92 and the mice survived (C57BL/6 mice [7]; C57BL/6, mouse) was 100%. The “maximum tolerated dose relative to MPLA” value (C57BL/6 mice [7]; mouse) was greater than 10 times, the “serum TNFα” value (C57BL/6 mice [7]; mouse) was “significantly lower level” and the “serum TNFα” value (C57BL/6 mice [8]; […] post challenge, compared to vehicle treated mice) was “significantly lower level”. The mice survived (C57BL/6 mice [8]; i.p. pretreatment 500 nmol, LPS/galactosamine challenge next day) was “Over 80%”, the Survival (C57BL/6 mice [8]; i.p. pretreatment (500 nmol Cmpd, 40 μg MPLA), next day LPS 0.2 μg + galactosamine 12 mg per animal, survivors/treated) was 9/11 and the “IL-6 activity in mBMDC (in words)” value [2] was “high IL-6”. The “cell viability (MTT)” value (mBMDC) was “did not reduce cell viability”, the “IP-10 induction in LPS mutant (Trif lps/lps) cells” value ([4]; 5 μM overnight, vs C57BL/6 WT) was “significantly decreased” and the “IL-6 secretion in MyD88 null dendritic cells” value ([5]; 5 μM overnight, vs C57BL/6 WT) was “significantly impaired”. For the same compound, the “IP-10 production in mBMDC (in words)” value [9] was “high IP-10 production” and the bioavailability [10] was roughly 15%.
In the case of `N#CCn1c2ccccc2c2nc(SCC(=O)NC3CCCCC3)n(-c3ccccc3)c(=O)c21` [Compound 51, 2-((5-(cyanomethyl)-4-oxo-3-phenyl-4,5-dihydro-3H-pyrimido[5,4-b]indol-2-yl)thio)-N-cyclohexylacetamide], the “mouse TLR4, area under curve (AUC) values normalized to Cmpd 1” value (mouse TLR4) is reported as 55, the “human TLR4, values normalized to Cmpd 1” value (human TLR4) is reported as 19 and the “cell viability (MTT)” value (mBMDC) is reported as “did not reduce cell viability”.
